Source: PMC2559818 (BMC Clinical Pharmacology, 2008)
Several values for one entry are separate records, joined by “and”; a condition that tells them apart may be missing. Equal values may be shown once.

How the values were obtained:
plasma proteins [1] = test: Ex vivo activity of STS (release of Pt from plasma proteins); format: in vitro ADME, human; conditions: for Percentage of plasma Pt recovered in pUF after STS incubation: 750 μL plasma + 25 μL 250 g/L STS
Method: Therefore, 750 μL of plasma were incubated with 25 μL of a 250 g/L STS solution. As control, 750 μL of plasma were incubated with 25 μL of water. After incubation, pUF was prepared and Pt concentrations of the STS incubated samples and control samples were compared. Protein concentrations in the ultrafiltrates were analysed using a 2-D Quant Kit (GE healthcare Bio-Sciences AB, Uppsala, Sweden).

calf thymus DNA = test: Assessment of DNA binding activity of Pt in pUF (ex vivo incubation); conditions: for DNA binding of Pt in patient pUF samples: pUF of two treated patients per drug; for DNA binding of Pt in patient pUF samples / Added Pt bound to DNA: five-day incubation with calf thymus DNA; for Added Pt bound to DNA: parent compound added to pUF of healthy volunteers; for Total binding capacity of equivalent concentrations of parent compound recovered (average): patient pUF, more than 8 months after end of treatment
Method: The latter was done to assess the binding capacity of the parent compounds at concentrations in the same range as the patients samples. After a five-day incubation to achieve a maximal Pt-DNA binding, the DNA was precipitated, washed and dissolved in water as described by Brouwers et al. After hydrolysis, the Pt-DNA binding was assessed.

[2] = Renal function (MDRD GFR) at chemotherapy and at follow-up; format: in vivo, human
Method: Differences between Pt levels of cisplatin and oxaliplatin treated patients, control cancer patients, and healthy controls were evaluated using the Mann-Whitney U test. The Wilcoxon signed rank test was used to test the difference between the renal function at the time of chemotherapy and at follow-up. Correlations between plasma and pUF level of Pt treated patients were evaluated by the Pearson correlation coefficient. SPSS was used to perform these tests.
Pt levels were proportional to the cumulative dose. […] An association between GSTT1,GSTM1, and GSTP1 genotypes and Pt levels could not be established. The effect of the renal function on Pt levels was evaluated using the glomerular filtration rate (GFR) which was calculated with the 'Modification of Diet in Renal Disease (MDRD)'-formula [21]. […] Figure 3 and 4 show the MDRD GFR for patients at the start of their chemotherapy treatment and at follow-up. […] Long-term plasma Pt concentrations were lower when the GFR at the time of chemotherapy was higher.

[3] = Long-term Pt levels in plasma ultrafiltrate (pUF) of treated patients (ICP-MS); format: in vivo, human; conditions: pUF prepared after sampling
Method: Whole blood samples for Pt analysis were collected in 10 mL EDTA containing tubes (Becton Dickinson Vacutainer Systems, Plymouth, UK). […] Plasma was obtained by centrifuging the whole blood samples for 15 min (1,000 g, 4°C). […] PUF was obtained by centrifuging the plasma fraction through 3 and 30 kDa cut-off ultrafiltrate filter (Centriplus Millipore Corporation, Bedford, MA, USA) for 30 min (1,000 g, 20°C). […] All samples were stored at -20°C until analysis.
Pt analyses were performed using an ICP-MS and a validated method described previously [15]. Pt levels were assessed in plasma, pUF, and bound to DNA in PBMCs.

plasma proteins [4] = test: Ex vivo assessment of protein binding capacity of Pt in pUF (plasma storage); format: in vitro ADME, human
Method: Pt concentrations analysed in pUF prepared after storage were compared to Pt concentrations analysed in pUF which was prepared immediately after blood sampling. Additionally, plasma samples were reanalyzed to assess whether or not Pt concentrations in plasma were reduced during storage due to adsorption to the tubes.

[5] = Long-term Pt levels in plasma of treated patients (ICP-MS); format: in vivo; conditions: patients treated 8 to 75 months before
Method: Whole blood samples for Pt analysis were collected in 10 mL EDTA containing tubes (Becton Dickinson Vacutainer Systems, Plymouth, UK). EDTA was preferred above heparin because the fraction peripheral blood mononuclear cells (PBMCs) could be isolated easier from EDTA plasma. […] Plasma was obtained by centrifuging the whole blood samples for 15 min (1,000 g, 4°C). The fraction containing PBMCs was isolated from the whole blood sample using the method described by Pluim et al [13]. PUF was obtained by centrifuging the plasma fraction through 3 and 30 kDa cut-off ultrafiltrate filter (Centriplus Millipore Corporation, Bedford, MA, USA) for 30 min (1,000 g, 20°C). […] All samples were stored at -20°C until analysis.
Pt analyses were performed using an ICP-MS and a validated method described previously [15]. Pt levels were assessed in plasma, pUF, and bound to DNA in PBMCs. DNA was isolated from PBMCs using a method described by Pluim et al [13]. Before ICP-MS analysis, the DNA was hydrolysed in 1% (v/v) HNO3 solution at 70°C. The limit of quantification (LLOQ) of the method was 20 ng/L for plasma, 7.5 ng/L for pUF, and the absolute sensitivity for Pt bound to DNA was 0.75 pg Pt (7.5 fg Pt per μg DNA when using 100 μg DNA). The LLOQs were determined on the basis of five times the noise in blank matrix solutions.

[6] = Effects of determinants on in vivo plasma Pt levels (NONMEM modelling)
Method: Additionally, serum creatinine was assessed at the time of study.
Possible relationships between determinants and Pt levels were evaluated using non-linear mixed effects modeling using NONMEM software (Version V1) (GloboMax LLC, Ellicott city, MD, USA). The first order conditional estimation method was used throughout. It was assumed that, due to the long follow-up, the treatment period was negligible compared to the follow-up time. The significance of established relationships was assessed using the likelihood ratio test.

[7] = individual patient plasma samples
[8] = plasma stored at -30°C for 144-278 days
[9] = two-compartment model, per compound

Row | SMILES | Factor increase of Pt in pUF after STS incubation (plasma proteins [1]; [7]) | Percentage of plasma Pt recovered in pUF after STS incubation (plasma proteins [1]; [7]) | DNA binding of Pt in patient pUF samples (calf thymus DNA) | Added Pt bound to DNA (calf thymus DNA) | Total binding capacity of equivalent concentrations of parent compound recovered (average) (calf thymus DNA) | GFR at the time of the current study (follow-up) ([2]; in vivo) | Median GFR before start of the Pt chemotherapy ([2]; in vivo) | Percentage of plasma Pt recovered in pUF (average) [3] | Percentage of plasma Pt recovered in pUF (plasma proteins [1]; individual patient plasma samples, control incubation with water) | Increase in Pt pUF concentrations in samples prepared from STS treated plasma (plasma proteins [1]; over four samples per drug) | Percentage of plasma Pt recovered in pUF after storage (plasma proteins [4]; individual patient samples, 144-278 days of storage at -30°C) | Percentage of plasma Pt recovered in pUF before storage (plasma proteins [4]; individual patient samples, pUF prepared immediately after blood sampling) | Decrease in Pt concentrations in pUF after storage (average) (plasma proteins [4]; [8]) | Plasma Pt concentrations over storage time (plasma proteins [4]; [8]) | GFR at the time of the current study (follow-up) ([2]; MDRD formula) | Median GFR before start of the Pt chemotherapy ([2]; MDRD formula) | Plasma Pt levels relative to mean level of unexposed controls [5] | First elimination half-life (t1/2) of plasma Pt [6, 9] | Second elimination half-life (t1/2) of plasma Pt [6, 9] | Reduction in long-term plasma Pt levels ([6]; STS co-administration with intra-arterial cisplatin, p < 0.001)
1 | N.N.[Cl][Pt][Cl] [Cisplatin, cisplatin] | 1.4-fold and 2.7-fold and 2.3-fold and 2.9-fold | 17.5 and 34.9 and 30.7 and 36.6 | 1.8% and 2.4% | 21% | 10% | 55 mL/min/1.73 m^2 | 78 mL/min/1.73 m^2 |  |  |  |  |  |  |  |  |  |  |  |  | 
2 | O=C1[O][Pt]2([NH][C@@H]3CCCC[C@H]3[NH]2)[O]C1=O [Oxaliplatin, oxaliplatin] | 1.5-fold and 1.4-fold and 2.0-fold | 40.4 and 46.2 and 39.5 and 38.7 | 0.78% and 1.1% | 21% | 4.3% |  |  | 24.2% | 27.2 and 32.2 and 20 and 26.5 | 1.6 fold | 25.2 and 21.2 and 16 and 15.8 | 28.2 and 27.8 and 25.9 and 22.9 | 26% | remained constant over time | 61 mL/min/1.73 m^2 | 65 mL/min/1.73 m^2 | > 30 fold | 1.37 months | 535 months | 
3 | O=S([O-])([O-])=S.[Na+].[Na+] [STS, sodium thiosulfate] |  |  |  |  |  |  |  |  |  |  |  |  |  |  |  |  |  |  |  | 71%
